Source: US20250367185A1, “TRANSLESION SYNTHESIS POLYMERASE INHIBITORS AND USES THEREOF” (THE UNIVERSITY OF VERMONT AND STATE AGRICULTURAL COLLEGE, priority 2022, published 2025)

Columns and labels:
Type in all cases: cell-based
[1] = tested on: A549-ACE2+ cells infected with SARS-COV-2; experiment: Microsatellite instability (MSI) in SARS-COV-2 infected cells
[2] = tested on: SARS-CoV-2 infected A549-ACE2+ cells
[3] = tested on: p62 and LC3 in SARS-COV-2 infected cells
SARS-COV-2 = SARS-COV-2 proliferation in cell lines, relative mRNA content
[4] = tested on: DDR, TLS, and DNA repair genes in A549-ACE2+ cells
[5] = tested on: gH2AX in SARS-CoV-2 infected A549-ACE2+ cells; experiment: gH2AX expression in SARS-CoV-2 infected cells; details: SARS-CoV-2 infected A549-ACE2+ cells at 48 hours
Description: Next, whether other genome instability markers were also repressed by the Compound 1 treatment in SARS-COV-2 infected cells was examined. Compound 1 treatment of the A549-ACE2+ cells suppressed transcript expression of all the DDR, TLS, and DNA repair genes. Likewise, the enhanced expression of gH2AX in SARS-CoV-2 infected A549-ACE2+ cells at 48 hours was suppressed by up to 40-fold post-Compound 1 treatment.

Dengue virus = Dengue virus viral load in infected A549-ACE2+ cells; details: 10 μM, compared to non-treated cells, data at 24 hours, 48 hours and 5 days post-infection
Description: FIG. 2 is a graph showing the relative reduction of mRNA in untreated A549-ACE2+ cells (“Not Treated”) and in cells post-treatment with Compound 1 (“JH Treated”) at 24 and 48 hours post-infection with Dengue virus.
FIG. 3 is a graph showing the relative reduction of mRNA in untreated A549-ACE2+ cells and cells post treatment with Compound 1 (“JH Treated”) or untreated (“Not Treated”) 5 days post-infection with Dengue virus.
Compound 1 (10 μM) was administered to A549-ACE2+ cells infected with Dengue virus and the resulting viral loads were measured (FIGS. 2 and 3). Compared to non-treated cells, those treated with Compound 1 suppressed Dengue virus by 77-fold. Data is shown 24 hours, 48 hours, and 5 days post-infection (PI).

CC(C)CC(=O)c1c(Nc2ccc(C(=O)O)cc2Cl)[nH]c2c(Cl)ccc([N+](=O)[O-])c2c1=O [Compound 1, 3-chloro-4-((8-chloro-3-(3-methylbutanoyl)-5-nitro-4-oxo-1,4-dihydroquinolin-2-yl)amino)benzoic acid]
SARS-COV-2-dependent MSI [1]: suppress
rescue of telomere instability [2]: did not rescue
expression of LC3 [3]: significantly increases
expression of p62 [3]: significantly increases
proliferation of SARS-COV-2, relative mRNA content in cells (SARS-COV-2; A549-ACE2+ cells): directly suppress
proliferation of SARS-COV-2, relative mRNA content in cells (SARS-COV-2; Calu-3 cells): directly suppress
proliferation of SARS-COV-2, relative mRNA content in cells (SARS-COV-2; Vero cells): directly suppress
transcript expression of all the DDR, TLS, and DNA repair genes [4]: suppressed
suppression of enhanced gH2AX expression [5]: up to 40 fold
suppression of Dengue virus (viral load) (Dengue virus): 77 fold
